Source: article doi:10.1101/2025.05.22.655130v1, “Design to Data for mutants of β-glucosidase B from Paenibacillus polymyxa: L336M, L336A, L336S, L336H, D35E, D35W” (biorxiv, 2025)

Molecular target: T1, β-glucosidase B (BglB) (Paenibacillus polymyxa, UniProt P22505)
T1 construct: previously cloned in pET29b+, expressed in E. coli, purified by nickel IMAC; band about 50 kD
Assay: Michaelis-Menten, 4-nitrophenol release at […] nm
Type: biochemical
Settings: 0.11-100 mM substrate, readings every minute for 15 min; triplicate

T1 sequence (P22505 whole entry): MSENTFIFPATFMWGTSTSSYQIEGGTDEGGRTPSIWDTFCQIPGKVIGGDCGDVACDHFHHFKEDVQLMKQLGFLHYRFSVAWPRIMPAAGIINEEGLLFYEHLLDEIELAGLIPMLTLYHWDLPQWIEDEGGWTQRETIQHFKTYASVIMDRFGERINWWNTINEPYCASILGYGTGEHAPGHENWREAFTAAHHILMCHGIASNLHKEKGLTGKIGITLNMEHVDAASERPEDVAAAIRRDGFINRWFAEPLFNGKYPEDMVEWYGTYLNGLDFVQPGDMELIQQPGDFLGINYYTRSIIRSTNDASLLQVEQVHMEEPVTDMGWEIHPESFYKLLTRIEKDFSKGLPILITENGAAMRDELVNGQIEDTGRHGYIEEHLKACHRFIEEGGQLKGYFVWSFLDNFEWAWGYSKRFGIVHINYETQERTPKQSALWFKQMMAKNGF

- Km: 3.93 ± 0.26 mM
Structure (SMILES): O=[N+]([O-])c1ccc(O[C@@H]2O[C@H](CO)[C@@H](O)[C@H](O)[C@H]2O)cc1 [pNPG, p-nitrophenyl-beta-D-glucoside]
